According to the kinase profiling compilation of Christmann-Franck et al. (2016):
Where “and” joins values, the source holds several entries; their conditions need not be identical. Identical values can stand only once.

Key:
Test in all cases: radiometric filter-binding kinase assay
CSNK2A1 (human) = CSNK2A1 (human) (UniProt P68400); conditions: compound 100.0 µM; ATP 5 µM
[1] = system: PAK2 (human), Q13177 [T402E]; conditions: compound 100.0 µM; ATP 20 µM
PAK6 (human) = PAK6 (human) (UniProt Q9NQU5); conditions: compound 100.0 µM; ATP 20 µM
Sequence of PAK6 (human) (Q9NQU5 whole entry, looked up): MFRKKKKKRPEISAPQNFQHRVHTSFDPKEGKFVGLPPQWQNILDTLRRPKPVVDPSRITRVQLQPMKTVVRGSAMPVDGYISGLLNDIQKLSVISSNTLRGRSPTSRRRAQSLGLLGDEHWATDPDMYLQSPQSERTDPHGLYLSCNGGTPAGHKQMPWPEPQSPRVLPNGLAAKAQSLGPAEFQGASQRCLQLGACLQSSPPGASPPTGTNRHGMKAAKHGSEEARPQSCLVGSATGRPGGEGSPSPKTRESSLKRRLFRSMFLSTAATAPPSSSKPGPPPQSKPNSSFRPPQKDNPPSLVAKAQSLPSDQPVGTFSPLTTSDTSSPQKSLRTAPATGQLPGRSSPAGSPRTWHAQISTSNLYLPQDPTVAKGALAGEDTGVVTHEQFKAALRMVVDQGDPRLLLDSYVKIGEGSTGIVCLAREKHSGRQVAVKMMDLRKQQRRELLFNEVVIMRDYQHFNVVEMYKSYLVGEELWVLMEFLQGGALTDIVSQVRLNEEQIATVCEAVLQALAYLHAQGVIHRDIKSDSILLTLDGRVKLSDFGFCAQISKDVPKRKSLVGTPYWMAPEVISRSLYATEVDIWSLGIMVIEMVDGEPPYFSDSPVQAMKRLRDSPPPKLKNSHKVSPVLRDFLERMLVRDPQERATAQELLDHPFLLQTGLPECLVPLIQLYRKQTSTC

DYRK3 (human) = DYRK3 (human) (UniProt O43781); conditions: compound 100.0 µM; ATP 5 µM
SRC (human) = SRC (human) (UniProt P12931); conditions: compound 100.0 µM; ATP 50 µM
AURKA (human) = AURKA (human) (UniProt O14965); conditions: compound 100.0 µM; ATP 5 µM
BRSK2 (human) = BRSK2 (human) (UniProt Q8IWQ3); conditions: compound 100.0 µM; ATP 50 µM
MAPKAPK2 (human) = MAPKAPK2 (human) (UniProt P49137); conditions: compound 100.0 µM; ATP 20 µM
DYRK2 (human) = DYRK2 (human) (UniProt Q92630); conditions: compound 100.0 µM; ATP 50 µM
MAPK14 (human) = MAPK14 (human) (UniProt Q16539); conditions: compound 100.0 µM; ATP 50 µM
MAP3K5 (human) = MAP3K5 (human) (UniProt Q99683); conditions: compound 100.0 µM; ATP 50 µM
MAP3K1 (human) = MAP3K1 (human) (UniProt Q13233); conditions: compound 100.0 µM; ATP 50 µM
MAP2K2 (human) = MAP2K2 (human) (UniProt P36507); conditions: compound 100.0 µM; ATP 5 µM
Sequence of MAP2K2 (human) (P36507 whole entry, looked up): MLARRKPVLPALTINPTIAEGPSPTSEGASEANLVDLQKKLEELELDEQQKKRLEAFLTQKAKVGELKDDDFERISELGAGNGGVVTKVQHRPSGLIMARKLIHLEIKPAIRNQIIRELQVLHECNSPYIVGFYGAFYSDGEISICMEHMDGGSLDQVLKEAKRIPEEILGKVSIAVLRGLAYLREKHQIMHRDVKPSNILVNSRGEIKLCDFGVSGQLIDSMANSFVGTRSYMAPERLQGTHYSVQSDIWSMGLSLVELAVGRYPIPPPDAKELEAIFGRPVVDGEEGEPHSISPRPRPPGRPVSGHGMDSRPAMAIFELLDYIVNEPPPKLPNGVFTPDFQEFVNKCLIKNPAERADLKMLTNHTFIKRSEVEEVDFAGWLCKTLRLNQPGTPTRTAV

IKBKB (human) = IKBKB (human) (UniProt O14920); conditions: compound 100.0 µM; ATP 5 µM
INSRR (human) = INSRR (human) (UniProt P14616); conditions: compound 100.0 µM; ATP 5 µM
MAP2K6 (human) = MAP2K6 (human) (UniProt P52564); conditions: compound 100.0 µM; ATP 50 µM
CHEK2 (human) = CHEK2 (human) (UniProt O96017); conditions: compound 100.0 µM; ATP 20 µM
Sequence of CHEK2 (human) (O96017 whole entry, looked up): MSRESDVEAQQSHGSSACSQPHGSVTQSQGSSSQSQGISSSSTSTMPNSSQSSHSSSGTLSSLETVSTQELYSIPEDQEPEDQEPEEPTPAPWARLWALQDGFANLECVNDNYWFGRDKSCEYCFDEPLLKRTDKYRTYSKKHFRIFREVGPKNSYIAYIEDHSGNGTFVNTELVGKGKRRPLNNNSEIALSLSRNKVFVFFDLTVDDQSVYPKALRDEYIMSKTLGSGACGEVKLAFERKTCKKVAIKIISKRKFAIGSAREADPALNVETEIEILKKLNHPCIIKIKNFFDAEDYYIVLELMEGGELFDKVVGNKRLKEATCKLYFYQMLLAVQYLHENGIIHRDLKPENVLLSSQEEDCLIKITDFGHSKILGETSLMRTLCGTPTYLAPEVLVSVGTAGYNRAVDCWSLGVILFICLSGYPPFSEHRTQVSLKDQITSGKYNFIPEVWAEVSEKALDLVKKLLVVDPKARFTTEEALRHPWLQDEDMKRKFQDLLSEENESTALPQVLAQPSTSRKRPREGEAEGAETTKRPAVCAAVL

PKN2 (human) = PKN2 (human) (UniProt Q16513); conditions: compound 100.0 µM; ATP 5 µM
ROCK2 (rat) = conditions: compound 100.0 µM; ATP 20 µM; accession and sequence are those of the human protein
PRKCZ (human) = PRKCZ (human) (UniProt Q05513); conditions: compound 100.0 µM; ATP 5 µM
DYRK1A (human) = DYRK1A (human) (UniProt Q13627); conditions: compound 100.0 µM; ATP 50 µM
EPHB1 (human) = EPHB1 (human) (UniProt P54762); conditions: compound 100.0 µM; ATP 20 µM
[2] = target: PRKAA1 PRKAB2 PRKAG1 (human) (UniProt O43741+Q13131+P54619); conditions: compound 100.0 µM; ATP 20 µM
ERBB4 (human) = ERBB4 (human) (UniProt Q15303); conditions: compound 100.0 µM; ATP 5 µM
LCK (mouse) = conditions: compound 100.0 µM; ATP 50 µM; accession and sequence are those of the human protein
PRKACA (human) = PRKACA (human) (UniProt P17612); conditions: compound 100.0 µM; ATP 20 µM
CDK2 CCNA2 (human) = CDK2 CCNA2 (human) (UniProt P20248+P24941); conditions: compound 100.0 µM; ATP 20 µM
GCK (human) = GCK (human) (UniProt Q12851); conditions: compound 100.0 µM; ATP 20 µM
[3] = system: RPS6KB1 (human), P23443 [T412E]; conditions: compound 100.0 µM; ATP 20 µM
Sequence of RPS6KB1 (human), P23443 [T412E] (P23443 whole entry T412E, looked up): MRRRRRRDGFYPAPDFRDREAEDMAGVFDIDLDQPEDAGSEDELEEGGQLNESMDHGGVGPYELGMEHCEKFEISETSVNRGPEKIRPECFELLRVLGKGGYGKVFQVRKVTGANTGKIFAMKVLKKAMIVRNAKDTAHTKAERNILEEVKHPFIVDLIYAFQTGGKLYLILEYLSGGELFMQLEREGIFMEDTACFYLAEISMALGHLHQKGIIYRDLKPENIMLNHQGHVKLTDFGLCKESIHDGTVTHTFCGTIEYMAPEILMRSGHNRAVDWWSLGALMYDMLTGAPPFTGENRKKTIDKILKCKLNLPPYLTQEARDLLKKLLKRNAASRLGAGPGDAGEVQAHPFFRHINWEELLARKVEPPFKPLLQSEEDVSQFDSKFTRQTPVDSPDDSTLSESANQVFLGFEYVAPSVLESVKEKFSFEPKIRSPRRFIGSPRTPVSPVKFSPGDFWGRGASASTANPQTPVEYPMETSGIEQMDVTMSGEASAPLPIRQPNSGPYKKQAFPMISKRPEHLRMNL

MAPK15 (human) = MAPK15 (human) (UniProt Q8TD08); conditions: compound 100.0 µM; ATP 5 µM
GSK3B (human) = GSK3B (human) (UniProt P49841); conditions: compound 100.0 µM; ATP 5 µM
CHEK1 (human) = CHEK1 (human) (UniProt O14757); conditions: compound 100.0 µM; ATP 20 µM
PAK4 (human) = PAK4 (human) (UniProt O96013); conditions: compound 100.0 µM; ATP 5 µM
Sequence of PAK4 (human) (O96013 whole entry, looked up): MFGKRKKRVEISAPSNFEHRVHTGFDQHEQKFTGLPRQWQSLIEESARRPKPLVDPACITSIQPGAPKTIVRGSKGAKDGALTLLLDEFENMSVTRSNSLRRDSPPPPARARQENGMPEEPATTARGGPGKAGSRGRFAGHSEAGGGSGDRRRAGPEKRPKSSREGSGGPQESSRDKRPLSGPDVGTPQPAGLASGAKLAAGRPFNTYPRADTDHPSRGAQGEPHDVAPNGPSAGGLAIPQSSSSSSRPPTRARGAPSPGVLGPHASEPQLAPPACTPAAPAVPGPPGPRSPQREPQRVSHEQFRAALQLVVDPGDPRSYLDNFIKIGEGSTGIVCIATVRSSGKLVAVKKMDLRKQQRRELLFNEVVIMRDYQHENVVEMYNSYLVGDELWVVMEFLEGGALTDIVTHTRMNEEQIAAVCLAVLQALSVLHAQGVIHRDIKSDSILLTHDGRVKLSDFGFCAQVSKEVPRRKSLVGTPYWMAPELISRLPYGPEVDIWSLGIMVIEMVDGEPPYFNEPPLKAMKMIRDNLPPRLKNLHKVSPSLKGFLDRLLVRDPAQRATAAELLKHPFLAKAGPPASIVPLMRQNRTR

TTK (human) = TTK (human) (UniProt P33981); conditions: compound 100.0 µM; ATP 20 µM
Sequence of TTK (human) (P33981 whole entry, looked up): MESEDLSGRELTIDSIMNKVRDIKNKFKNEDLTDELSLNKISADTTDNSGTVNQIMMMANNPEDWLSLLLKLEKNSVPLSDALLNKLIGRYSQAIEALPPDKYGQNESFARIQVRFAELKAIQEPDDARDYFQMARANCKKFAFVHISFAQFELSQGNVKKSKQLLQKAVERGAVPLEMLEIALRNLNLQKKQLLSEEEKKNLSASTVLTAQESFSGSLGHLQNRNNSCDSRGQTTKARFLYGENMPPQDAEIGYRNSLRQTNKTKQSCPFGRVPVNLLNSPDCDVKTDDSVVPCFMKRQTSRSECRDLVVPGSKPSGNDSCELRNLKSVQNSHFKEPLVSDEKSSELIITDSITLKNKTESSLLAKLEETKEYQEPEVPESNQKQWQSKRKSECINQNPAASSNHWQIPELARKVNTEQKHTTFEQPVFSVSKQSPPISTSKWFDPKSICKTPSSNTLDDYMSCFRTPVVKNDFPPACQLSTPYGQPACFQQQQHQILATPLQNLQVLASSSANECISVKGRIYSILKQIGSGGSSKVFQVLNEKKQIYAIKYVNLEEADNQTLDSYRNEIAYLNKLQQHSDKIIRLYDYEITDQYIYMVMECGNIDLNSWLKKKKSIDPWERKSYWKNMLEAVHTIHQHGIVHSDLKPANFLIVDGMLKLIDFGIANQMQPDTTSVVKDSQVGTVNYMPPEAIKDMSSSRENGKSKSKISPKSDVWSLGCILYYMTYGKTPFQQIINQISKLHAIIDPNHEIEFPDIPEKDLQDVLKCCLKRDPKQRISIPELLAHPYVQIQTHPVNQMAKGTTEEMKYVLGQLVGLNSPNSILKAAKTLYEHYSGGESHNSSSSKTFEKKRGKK

TBK1 (human) = TBK1 (human) (UniProt Q9UHD2); conditions: compound 100.0 µM; ATP 50 µM
MKNK1 (human) = MKNK1 (human) (UniProt Q9BUB5); conditions: compound 100.0 µM; ATP 50 µM
RPS6KA3 KD1 KD2 (human) = RPS6KA3 KD1 KD2 (human) (UniProt P51812); conditions: compound 100.0 µM; ATP 50 µM
Sequence of RPS6KA3 KD1 KD2 (human) (P51812 whole entry, looked up): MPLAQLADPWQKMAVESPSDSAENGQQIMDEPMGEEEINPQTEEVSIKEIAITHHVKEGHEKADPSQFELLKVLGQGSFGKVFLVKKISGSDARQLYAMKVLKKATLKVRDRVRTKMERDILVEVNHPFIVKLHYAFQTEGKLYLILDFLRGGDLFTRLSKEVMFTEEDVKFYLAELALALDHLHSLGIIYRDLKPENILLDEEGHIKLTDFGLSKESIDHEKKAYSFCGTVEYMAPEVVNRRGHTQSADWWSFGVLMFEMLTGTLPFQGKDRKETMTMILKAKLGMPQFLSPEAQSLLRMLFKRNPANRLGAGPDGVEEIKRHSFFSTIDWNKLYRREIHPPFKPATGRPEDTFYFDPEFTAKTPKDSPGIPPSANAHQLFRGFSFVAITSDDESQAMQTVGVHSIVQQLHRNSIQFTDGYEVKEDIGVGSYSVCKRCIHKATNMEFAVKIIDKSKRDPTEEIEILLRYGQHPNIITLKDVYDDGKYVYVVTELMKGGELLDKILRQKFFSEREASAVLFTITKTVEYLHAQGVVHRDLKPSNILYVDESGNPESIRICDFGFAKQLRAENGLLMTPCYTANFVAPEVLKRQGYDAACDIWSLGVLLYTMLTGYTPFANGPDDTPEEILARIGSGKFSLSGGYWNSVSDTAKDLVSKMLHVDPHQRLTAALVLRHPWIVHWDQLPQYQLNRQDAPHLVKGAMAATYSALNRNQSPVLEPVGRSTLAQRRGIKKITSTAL

NEK6 (human) = NEK6 (human) (UniProt Q9HC98); conditions: compound 100.0 µM; ATP 50 µM

Sequence of CSNK2A1 (human) (P68400 whole entry, looked up): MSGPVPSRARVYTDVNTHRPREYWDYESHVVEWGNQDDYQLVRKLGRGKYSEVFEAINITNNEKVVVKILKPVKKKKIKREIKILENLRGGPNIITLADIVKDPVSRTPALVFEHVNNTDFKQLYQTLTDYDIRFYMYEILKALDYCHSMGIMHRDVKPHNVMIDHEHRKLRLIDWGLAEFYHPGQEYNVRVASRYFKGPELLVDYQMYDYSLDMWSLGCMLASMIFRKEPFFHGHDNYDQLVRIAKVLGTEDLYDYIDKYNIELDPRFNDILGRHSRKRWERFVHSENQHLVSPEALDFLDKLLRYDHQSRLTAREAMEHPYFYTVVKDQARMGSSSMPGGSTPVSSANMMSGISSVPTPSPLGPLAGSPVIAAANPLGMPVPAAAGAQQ

Structure (SMILES) | inhibition (CSNK2A1 (human)) | inhibition [1] | inhibition (PAK6 (human)) | inhibition (DYRK3 (human)) | inhibition (SRC (human)) | inhibition (AURKA (human)) | inhibition (BRSK2 (human)) | inhibition (MAPKAPK2 (human)) | inhibition (DYRK2 (human)) | inhibition (MAPK14 (human)) | inhibition (MAP3K5 (human)) | inhibition (MAP3K1 (human)) | inhibition (MAP2K2 (human)) | inhibition (IKBKB (human)) | inhibition (INSRR (human)) | inhibition (MAP2K6 (human)) | inhibition (CHEK2 (human)) | inhibition (PKN2 (human)) | inhibition (ROCK2 (rat)) | inhibition (PRKCZ (human)) | further results
Cc1cccc(C)c1-c1cn2nc(N)nc2cn1 | 17% | 56% | 11% | 30% | 29% | 12% | 18% | 14% | 21% | 35% | 15% | 17% | 28% | 0% | 24% | 8% | 13% | 93% | 19% | 6% | inhibition (DYRK1A (human)): 19%; inhibition (EPHB1 (human)): 22%; inhibition [2]: 12%; inhibition (ERBB4 (human)): 28%; inhibition (LCK (mouse)): 37%; inhibition (PRKACA (human)): 0% and 19%; inhibition (CDK2 CCNA2 (human)): 17%; inhibition (GCK (human)): 59%; inhibition [3]: 8%; inhibition (MAPK15 (human)): 25%; inhibition (GSK3B (human)): 27%; inhibition (CHEK1 (human)): 9%; inhibition (PAK4 (human)): 0%; inhibition (TTK (human)): 20%; inhibition (TBK1 (human)): 21%; inhibition (MKNK1 (human)): 24%; inhibition (RPS6KA3 KD1 KD2 (human)): 42%; inhibition (NEK6 (human)): 3%
O=C(Nc1cnc2[nH]cnn2c1=O)c1ccccc1 | 0% | 0% | 0% | 1% | 0% | 0% | 22% | 17% | 27% | 0% | 9% | 6% | 0% | 0% | 0% | 3% | 0% | 0% | 0% | 0% | inhibition (DYRK1A (human)): 0%; inhibition (EPHB1 (human)): 1%; inhibition [2]: 0%; inhibition (ERBB4 (human)): 21%; inhibition (LCK (mouse)): 18%; inhibition (PRKACA (human)): 0%; inhibition (CDK2 CCNA2 (human)): 0%; inhibition (GCK (human)): 0%; inhibition [3]: 0%; inhibition (MAPK15 (human)): 4%; inhibition (GSK3B (human)): 0%; inhibition (CHEK1 (human)): 0%; inhibition (PAK4 (human)): 3%; inhibition (TTK (human)): 0%; inhibition (TBK1 (human)): 24%; inhibition (MKNK1 (human)): 0%; inhibition (RPS6KA3 KD1 KD2 (human)): 11%; inhibition (NEK6 (human)): 0%
CC1CN(c2nc3ccccn3c(=O)c2N)CC(C)O1 (configuration not stated) | 97% | 3% | 4% | 49% | 73% | 2% | 32% | 0% | 40% | 0% | 4% | 0% | 0% | 22% | 1% | 1% | 0% | 0% | 17% | 0% | inhibition (DYRK1A (human)): 36%; inhibition (EPHB1 (human)): 0%; inhibition [2]: 2%; inhibition (ERBB4 (human)): 28%; inhibition (LCK (mouse)): 2%; inhibition (PRKACA (human)): 0% and 15%; inhibition (CDK2 CCNA2 (human)): 8%; inhibition (GCK (human)): 0%; inhibition [3]: 0%; inhibition (MAPK15 (human)): 0%; inhibition (GSK3B (human)): 64%; inhibition (CHEK1 (human)): 0%; inhibition (PAK4 (human)): 0%; inhibition (TTK (human)): 3%; inhibition (TBK1 (human)): 0%; inhibition (MKNK1 (human)): 0%; inhibition (RPS6KA3 KD1 KD2 (human)): 84%; inhibition (NEK6 (human)): 0%
Nc1nc2cnc(-c3ccccc3)cn2n1 | 55% | 31% | 36% | 76% | 48% | 52% | 28% | 56% | 63% | 27% | 32% | 34% | 35% | 27% | 71% | 3% | 81% | 44% | 52% | 13% | inhibition (DYRK1A (human)): 77%; inhibition (EPHB1 (human)): 48%; inhibition [2]: 7%; inhibition (ERBB4 (human)): 83%; inhibition (LCK (mouse)): 75%; inhibition (PRKACA (human)): 9%; inhibition (CDK2 CCNA2 (human)): 54%; inhibition (GCK (human)): 93%; inhibition [3]: 9%; inhibition (MAPK15 (human)): 74%; inhibition (GSK3B (human)): 72%; inhibition (CHEK1 (human)): 45%; inhibition (PAK4 (human)): 89%; inhibition (TTK (human)): 34%; inhibition (TBK1 (human)): 72%; inhibition (MKNK1 (human)): 71%; inhibition (RPS6KA3 KD1 KD2 (human)): 51%; inhibition (NEK6 (human)): 1%
